Results reported in patent US20220204457A1, “ARGININE GINGIPAIN INHIBITORS” (Cortexyme, Inc., priority 2019, published 2022).

Key:
cathepsin B = cathepsin B (Homo sapiens, UniProt P07858); assay: cathepsin screen; type: biochemical
Experimental: The method can also be used to assay enzymes including Kgp, trypsin, and cathepsins such as cathepsin B. For Kgp, the substrate can be succinyl-Ala-Phe-Lys-AMC. For trypsin, the buffer can contain 10 mM Tris and 10 mM CaCl2 (pH 8.0), and the substrate can be Z-Gly-Gly-Arg-AMC. For cathepsin B, the buffer can contain 50 mM sodium phosphate, 1 mM EDTA, and 10 mM 2-mercaptoethanol (pH 6.25), and the substrate can be Z-Arg-Arg-AMC.

cathepsin V = cathepsin V (Homo sapiens, UniProt O60911); assay: cathepsin screen; type: biochemical
Sequence of cathepsin V (O60911 114-334): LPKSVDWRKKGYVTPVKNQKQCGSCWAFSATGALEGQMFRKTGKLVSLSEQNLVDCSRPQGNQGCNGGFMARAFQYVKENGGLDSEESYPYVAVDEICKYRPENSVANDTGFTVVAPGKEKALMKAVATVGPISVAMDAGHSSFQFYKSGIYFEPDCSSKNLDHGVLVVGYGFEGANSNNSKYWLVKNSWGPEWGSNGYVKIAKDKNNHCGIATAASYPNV

cathepsin H = biological target: T1, cathepsin H (Homo sapiens, UniProt P09668); assay: cathepsin screen; type: biochemical
T1 sequence (P09668 98-335): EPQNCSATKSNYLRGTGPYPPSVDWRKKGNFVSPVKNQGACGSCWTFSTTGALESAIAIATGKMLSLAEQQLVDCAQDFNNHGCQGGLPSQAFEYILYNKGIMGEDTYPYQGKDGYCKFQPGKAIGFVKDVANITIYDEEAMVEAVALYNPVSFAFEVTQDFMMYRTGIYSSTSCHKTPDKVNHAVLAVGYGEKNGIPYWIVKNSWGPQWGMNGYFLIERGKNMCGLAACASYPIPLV

cathepsin L = cathepsin L (Homo sapiens, UniProt P07711); assay: cathepsin screen; type: biochemical
Sequence of cathepsin L (P07711 114-333): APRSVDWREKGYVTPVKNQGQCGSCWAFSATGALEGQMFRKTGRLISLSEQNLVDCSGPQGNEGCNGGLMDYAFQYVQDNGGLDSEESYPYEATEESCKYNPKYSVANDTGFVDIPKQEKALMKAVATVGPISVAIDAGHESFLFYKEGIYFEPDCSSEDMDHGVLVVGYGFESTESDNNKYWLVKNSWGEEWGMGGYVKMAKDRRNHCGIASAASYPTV

cathepsin S = cathepsin S (Homo sapiens, UniProt P25774); assay: cathepsin screen; type: biochemical
Sequence of cathepsin S (P25774 115-331): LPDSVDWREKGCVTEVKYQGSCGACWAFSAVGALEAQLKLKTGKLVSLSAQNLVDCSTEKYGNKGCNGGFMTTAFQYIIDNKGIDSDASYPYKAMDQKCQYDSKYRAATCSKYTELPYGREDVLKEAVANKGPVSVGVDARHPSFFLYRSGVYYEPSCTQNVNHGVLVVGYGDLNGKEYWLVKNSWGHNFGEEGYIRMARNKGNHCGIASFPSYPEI

cathepsin F = biological target: T2, cathepsin F (Homo sapiens, UniProt Q9UBX1); assay: cathepsin screen; type: biochemical
T2 sequence (Q9UBX1 271-484): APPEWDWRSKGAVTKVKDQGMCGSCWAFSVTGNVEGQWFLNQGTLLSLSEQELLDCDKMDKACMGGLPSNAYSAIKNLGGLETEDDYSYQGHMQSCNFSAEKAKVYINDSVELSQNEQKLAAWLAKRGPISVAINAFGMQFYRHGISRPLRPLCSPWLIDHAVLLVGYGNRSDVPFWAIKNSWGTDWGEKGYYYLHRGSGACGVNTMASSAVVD

cathepsin K = biological target: T3, cathepsin K (Homo sapiens, UniProt P43235); assay: cathepsin screen; type: biochemical
T3 sequence (P43235 115-329): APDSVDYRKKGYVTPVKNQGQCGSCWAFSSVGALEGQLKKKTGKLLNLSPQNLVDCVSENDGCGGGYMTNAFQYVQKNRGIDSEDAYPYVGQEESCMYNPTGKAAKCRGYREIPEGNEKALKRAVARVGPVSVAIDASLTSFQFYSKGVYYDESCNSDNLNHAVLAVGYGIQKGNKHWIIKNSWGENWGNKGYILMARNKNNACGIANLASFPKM

[1] = oral administration of RTV 15 minutes prior to Kyt-36; from U.S. Pat. No. 9,758,473; cited from earlier work

IC50 (cathepsin B) [µM] | IC50 (cathepsin V) [µM] | IC50 (cathepsin H) [µM] | IC50 (cathepsin L) [µM] | IC50 (cathepsin S) [µM] | IC50 (cathepsin F) [µM] | IC50 (cathepsin K) [µM] | Structure (SMILES) | half-life [1]
> 10 | > 10 | > 10 | > 10 | > 10 | > 10 | > 10 | COC(C)(C)C(=O)N[C@@H](CCCNC(=N)N)C(=O)COC(C(F)(F)F)C(F)(F)F [Compound 1, (S)-N-(6-guanidino-1-((1,1,1,3,3,3-hexafluoropropan-2-yl)oxy)-2-oxohexan-3-yl)-2-methoxy-2-methylpropanamide] | 
 |  |  |  |  |  |  | CN(NC(=O)CC[C@H](NC(=O)OCc1ccccc1)C(=O)N[C@@H](CCCCN)C(=O)C(=O)NCc1ccccc1)c1ccccc1 [Kyt-36] | increases the half-life
